From article PMC6759624, “Unraveling Heparan Sulfate Proteoglycan Binding Motif for Cancer Cell Selectivity” (Frontiers in Oncology, 2019)

T1: recombinant human glypican-4 (human, UniProt O75487 19-529)
T1 construct: also called GPC4; rHSPG; source: bought: R&D Systems; from the Chinese Hamster Ovary cell line
T1 sequence (looked up): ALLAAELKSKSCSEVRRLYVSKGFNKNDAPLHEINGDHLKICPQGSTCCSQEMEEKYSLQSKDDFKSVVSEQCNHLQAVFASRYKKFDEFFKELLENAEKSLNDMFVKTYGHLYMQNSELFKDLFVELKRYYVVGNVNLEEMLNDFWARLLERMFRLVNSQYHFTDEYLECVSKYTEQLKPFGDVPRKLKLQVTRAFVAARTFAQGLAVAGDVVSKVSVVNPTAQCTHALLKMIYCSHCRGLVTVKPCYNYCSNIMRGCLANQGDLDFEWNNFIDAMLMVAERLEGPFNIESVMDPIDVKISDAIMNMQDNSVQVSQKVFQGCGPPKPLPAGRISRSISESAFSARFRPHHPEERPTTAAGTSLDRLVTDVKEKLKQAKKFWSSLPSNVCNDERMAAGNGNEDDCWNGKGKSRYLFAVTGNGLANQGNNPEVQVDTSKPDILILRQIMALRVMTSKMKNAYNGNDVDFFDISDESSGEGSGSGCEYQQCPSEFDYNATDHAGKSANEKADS


How the values were obtained:
[1] = tested on: NT4 (NT4-biotin captured on streptavidin CM5 chip); test: SPR, synthetic sulfated oligosaccharides injected over immobilized NT4; assay type: binding; conditions: for Kd (koff) / Ka (Kon) / Kd: immobilized NT4-biotin, HBS-EP+ pH 7.4, 1:1 Langmuir model, oligosaccharide as analyte; for Kd (koff): dissociation rate; for oligosaccharide binding to immobilized NT4 (in words): oligosaccharide 100 μg/ml (Figure 4E)
Excerpt: Eight-mer and nine-mer oligosaccharides S00 (GlcNAc-GlcA)4 α-paranitrophenyl, S04 (GlcNS-GlcA)4 α-paranitrophenyl, S06a (GlcA-GlcNS)2-(GlcA-GlcNS,6S)2-GlcA α-paranitrophenyl (9-mer), and S06b GlcNS-GlcA-GlcNS-IdoA,2S-GlcNS-IdoA,2S-GlcNS-GlcA α-paranitrophenyl were purchased from Iduron. In all oligosaccharides, the units were linked together by α (1–4) bonds only and carry a paranitrophenyl group. S12 (ΔHexA,2S α1-4 GlcNS,6S)3 (9-mer) was from Amsbio, and its first glycoside is unsaturated.
(§1) NT4-biotin was captured on a CM5 sensor chip where streptavidin had previously been immobilized by standard amine coupling. Briefly, the sensor chip surface was activated with a mixture of 0.1 M 1-ethyl-3(3-dimethylaminopropyl)-carbodiimide (EDC) and 0.4 M N-hydroxyl succinimide (NHS) for 7 min at a flow rate of 5 μl/min. Streptavidin was injected over the surface for 7 min, and finally, 1 M ethanolamine pH 8.5 was used to block any activated carboxyl groups. NT4-biotin, diluted in HBS-EP+ (Hepes 10 mM, NaCl 150 mM, EDTA 3.4 mM, 0.05% p20, pH 7.4) to 30 μg/ml, was injected for 2 min at a flow rate of 10 μl/min.
(§2) HSPG and oligosaccharides were diluted to different concentrations in HBS-EP+ and then injected over immobilized NT4 peptides. The sensor chip surface was regenerated with a short pulse of 10 mM NaOH/0.5 M NaCl 5 min after the end of the injections.
(§3) Kinetics were analyzed with the Biacore T100 evaluation 1.1.1 software using the 1:1 Langmuir model to fit the curves.

living cells = conditions: after 24 h; mass spectrometry; ref [14]; cited from earlier work
cancer cell lines = conditions: confocal microscopy, 37°C; "completely internalized only after 2 h"; ref [14], [16]; cited from earlier work
[2] = tested on: NT4 (NT4-biotin captured on streptavidin CM5 chip); test: SPR, rHSPG injected over immobilized NT4 (Biacore T100); assay type: binding; conditions: for Ka (Kon): HBS-EP+ (Hepes 10 mM, NaCl 150 mM, EDTA 3.4 mM, 0.05% p20, pH 7.4), 1:1 Langmuir model, full-length recombinant human HSPG as analyte; for Kd (koff) / Kd: HBS-EP+ pH 7.4, 1:1 Langmuir model, rHSPG as analyte; for Kd (koff): dissociation rate
Description: Experiments were performed on a Biacore T100 instrument (GE Healthcare). All materials were purchased from GE Healthcare unless otherwise specified. Full-length recombinant human HSPG were purchased from R&D Systems. Syndecan-3, syndecan-4, and glypican-3 were obtained from the mouse myeloma cell line (NS0), and glypican-4 was obtained from the Chinese Hamster Ovary cell line. The activity of syndecan-4, glypican-3, and glypican-4 was measured by the supplier as the ability of the immobilized protein to bind FGF-basic. The activity of syndecan-3 was measured by the supplier as the ability of the immobilized protein to inhibit adhesion of Saos-2 human osteosarcoma cells to human fibronectin.
as §1, §2, §3

[3] = target: T1, recombinant human glypican-4; test: SPR; Biacore T100; NT4-biotin captured on streptavidin on a CM5 chip; HSPG diluted in HBS-EP+ (Hepes 10 mM, NaCl 150 mM, EDTA 3.4 mM, 0.05% p20, pH 7.4) injected over it; 1:1 Langmuir model; conditions: both partners purified
[4] = target: recombinant human glypican-3 (human, UniProt P51654 25-580); test: as above; conditions: both partners purified
[5] = target: recombinant human syndecan-4 (human, UniProt P31431 19-198); test: as above; conditions: both partners purified

| Molecule | Kd (koff) [1] [s⁻¹] | Kd [1] [nM] | oligosaccharide binding to immobilized NT4 (in words) [1] | Kd (koff) [2] [s⁻¹] | Kd [2] [nM] | Ka (Kon) [1] [M⁻¹ s⁻¹] | Ka (Kon) [2] [M⁻¹ s⁻¹] | further results |
| --- | --- | --- | --- | --- | --- | --- | --- | --- |
| (pyELYENKPRRPYIL)4K2K-PEG12-K(biotin) [NT4-biotin] |  |  |  |  |  |  |  | stability on degradation by living cells (living cells): still stable after 24 h; time to complete internalization (cancer cell lines): 2 h |
| Glypican-3: full-length recombinant human HSPG from mouse myeloma cell line (NS0), R&D Systems |  |  |  | 0.001433 | 59.9 |  | 23920 |  |
| Glypican-4: full-length recombinant human HSPG from Chinese Hamster Ovary cell line, R&D Systems (protein) ALLAAELKSKSCSEVRRLYVSKGFNKNDAPLHEINGDHLKICPQGSTCCSQEMEEKYSLQSKDDFKSVVSEQCNHLQAVFASRYKKFDEFFKELLENAEKSLNDMFVKTYGHLYMQNSELFKDLFVELKRYYVVGNVNLEEMLNDFWARLLERMFRLVNSQYHFTDEYLECVSKYTEQLKPFGDVPRKLKLQVTRAFVAARTFAQGLAVAGDVVSKVSVVNPTAQCTHALLKMIYCSHCRGLVTVKPCYNYCSNIMRGCLANQGDLDFEWNNFIDAMLMVAERLEGPFNIESVMDPIDVKISDAIMNMQDNSVQVSQKVFQGCGPPKPLPAGRISRSISESAFSARFRPHHPEERPTTAAGTSLDRLVTDVKEKLKQAKKFWSSLPSNVCNDERMAAGNGNEDDCWNGKGKSRYLFAVTGNGLANQGNNPEVQVDTSKPDILILRQIMALRVMTSKMKNAYNGNDVDFFDISDESSGEGSGSGCEYQQCPSEFDYNATDHAGKSANEKADS |  |  |  | 0.0006719 | 77.1 |  | 8710 |  |
| ELYENKPRRPYIL (pyroglutamate at position 1 (pyE); the four arms are built on a branching core of lysines, K2K-PEG12-K(biotin), the 13-amino-acid arm of the tetrabranched peptide; the first letter is pyroglutamate (printed pyE); Tetrabranched: four copies of the arm joined by their C-termini to the amines of a three-lysine core (K2K), followed by PEG12 and Lys(biotin); The core is not written as a chain; also called NT4 peptide; NT4 conjugated with biotin; source: synthetic peptide (Fmoc chemistry, HPLC purified); not …) [NT4-biotin (pyELYENKPRRPYIL)4K2K-PEG12-K(biotin)] |  |  |  |  |  |  |  | Kd [3]: 77.1 nM; koff [3]: 0.000672 s⁻¹; kon [3]: 8710 M⁻¹ s⁻¹; Kd [4]: 59.9 nM; koff [4]: 0.00143 s⁻¹; kon [4]: 23900 M⁻¹ s⁻¹; Kd [5]: 257 nM; koff [5]: 0.00232 s⁻¹; kon [5]: 9010 M⁻¹ s⁻¹ |
| Syndecan-4: full-length recombinant human HSPG from mouse myeloma cell line (NS0), R&D Systems (protein) ESIRETEVIDPQDLLEGRYFSGALPDDEDVVGPGQESDDFELSGSGDLDDLEDSMIGPEVVHPLVPLDNHIPERAGSGSQVPTEPKKLEENEVIPKRISPVEESEDVSNKVSMSSTVQGSNIFERTEVLAALIVGGIVGILFAVFLILLLMYRMKKKDEGSYDLGKKPIYKKAPTNEFYA |  |  |  | 0.002316 | 257 |  | 9010 |  |

More lines, main results first:

| Kd (koff) [1] [s⁻¹] | Kd [1] [nM] | oligosaccharide binding to immobilized NT4 (in words) [1] | Kd (koff) [2] [s⁻¹] | Kd [2] [nM] | Molecule | Ka (Kon) [1] [M⁻¹ s⁻¹] | Ka (Kon) [2] [M⁻¹ s⁻¹] | further results |
| --- | --- | --- | --- | --- | --- | --- | --- | --- |
| 0.002575 | 2430 | bound NT4 better |  |  | (GlcA-GlcNS)2-(GlcA-GlcNS,6S)2-GlcA α-paranitrophenyl [S06a] | 1060 |  |  |
|  |  | almost total loss of binding |  |  | (GlcNS-GlcA)4 α-paranitrophenyl [S04] |  |  |  |
| 0.0009126 | 258 | best-binding oligosaccharide |  |  | (ΔHexA,2S α1-4 GlcNS,6S)3 [S12] | 3530 |  |  |
| 0.004039 | 2700 |  |  |  | GlcNS-GlcA-GlcNS-IdoA,2S-GlcNS-IdoA,2S-GlcNS-GlcA α-paranitrophenyl [S06b] | 1490 |  |  |
